Assay results: ChEMBL document CHEMBL3045974, “Global antifungal profile optimization of chlorophenyl derivatives against Botrytis cinerea and Colletotrichum gloeosporioides” (2009)

Assays:
Assay type in all cases: functional
Botrytis cinerea [1] = experiment: Antifungal activity against Botryotinia fuckeliana 2100 assessed as inhibition of radial growth at 150 ug/mL at 25 degC measured after 5 days; settings: Botrytis cinerea, 2100, 120 h; read-out: GI
[2] = test system: Colletotrichum gloeosporioides; experiment: Antifungal activity against Colletotrichum gloeosporioides 20122-CECT assessed as inhibition of radial growth at 100 ug/mL at 25 degC measured after 5 days; settings: 120 h, read-out: GI
[3] = test system: Colletotrichum gloeosporioides; experiment: Antifungal activity against Colletotrichum gloeosporioides 20122-CECT assessed as inhibition of radial growth at 150 ug/mL at 25 degC measured after 5 days; settings: 120 h, read-out: GI
Botrytis cinerea [4] = experiment: Antifungal activity against Botryotinia fuckeliana 2100 assessed as inhibition of radial growth at 50 ug/mL at 25 degC measured after 5 days; settings: Botrytis cinerea, 2100, 120 h; read-out: GI
Botrytis cinerea [5] = experiment: Antifungal activity against Botryotinia fuckeliana 2100 assessed as inhibition of radial growth at 100 ug/mL at 25 degC measured after 5 days; settings: Botrytis cinerea, 2100, 120 h; read-out: GI
[6] = test system: Colletotrichum gloeosporioides; experiment: Antifungal activity against Colletotrichum gloeosporioides 20122-CECT assessed as inhibition of radial growth at 50 ug/mL at 25 degC measured after 5 days; settings: 120 h, read-out: GI
[7] = test system: Colletotrichum gloeosporioides; experiment: Antifungal activity against Colletotrichum gloeosporioides 20122-CECT assessed as inhibition of radial growth at 150 ug/mL at 25 degC measured after 4 days; settings: 96 h, read-out: GI
[8] = test system: Colletotrichum gloeosporioides; experiment: Antifungal activity against Colletotrichum gloeosporioides 20122-CECT assessed as inhibition of radial growth at 100 ug/mL at 25 degC measured after 4 days; settings: 96 h, read-out: GI
[9] = test system: Colletotrichum gloeosporioides; experiment: Antifungal activity against Colletotrichum gloeosporioides 20122-CECT assessed as inhibition of radial growth at 50 ug/mL at 25 degC measured after 4 days; settings: 96 h, read-out: GI
Botrytis cinerea [10] = experiment: Antifungal activity against Botryotinia fuckeliana 2100 assessed as inhibition of radial growth at 150 ug/mL at 25 degC measured after 4 days; settings: Botrytis cinerea, 2100, 96 h; read-out: GI

| SMILES | inhibition of growth at 150 µg/mL (Botrytis cinerea [1]) [%] | inhibition of growth at 100 µg/mL [2] [%] | inhibition of growth at 150 µg/mL [3] [%] | inhibition of growth at 50 µg/mL (Botrytis cinerea [4]) [%] | inhibition of growth at 100 µg/mL (Botrytis cinerea [5]) [%] | inhibition of growth at 50 µg/mL [6] [%] | inhibition of growth at 150 µg/mL [7] [%] | inhibition of growth at 100 µg/mL [8] [%] | inhibition of growth at 50 µg/mL [9] [%] | inhibition of growth at 150 µg/mL (Botrytis cinerea [10]) [%] |
| --- | --- | --- | --- | --- | --- | --- | --- | --- | --- | --- |
| CC[C@@H](OC(C)=O)c1cccc(Cl)c1 | 30 | 0 | 0 | 22 | 29 | 0 |  |  |  |  |
| CC[C@@H](OC(C)=O)c1ccc(Cl)cc1 | 44 | 0 | 0 | 12 | 40 | 0 |  |  |  |  |
| O=C(Cc1ccccc1)c1ccc(Cl)cc1 | 38 |  |  | 31 | 33 |  | 17 | 13 | 9 |  |
| O[C@H](c1ccccc1)[C@H](O)c1ccc(Cl)cc1 | 62 | 42 | 51 | 32 | 59 | 22 |  |  |  |  |
| CC[C@@H](O)c1cccc(Cl)c1 | 86 | 60 | 65 | 72 | 80 | 34 |  |  |  |  |
| OC(c1ccccc1)c1ccc(Cl)cc1 (racemic) | 100 | 87 | 94 | 95 | 100 | 63 |  |  |  |  |
| O[C@@H](c1ccccc1)c1ccc(Cl)cc1 | 100 | 85 | 96 | 91 | 100 | 66 |  |  |  |  |
| CC[C@@H](O)c1ccc(Cl)cc1 | 98 | 39 | 59 | 74 | 82 | 28 |  |  |  |  |
| Clc1ccc(C2OC2c2ccccc2)cc1 (stereo not drawn) | 28 | 0 | 0 |  |  | 0 |  |  |  |  |
| Clc1ccc(/C=C/c2ccccc2)cc1 |  | 0 | 0 |  |  | 0 |  |  |  | 19 |
| CC[C@H](O)c1ccc(Cl)cc1 | 92 | 29 | 33 | 62 | 73 | 28 |  |  |  |  |
| O[C@@H](c1ccc(Cl)cc1)C1CC1 | 100 | 40 | 52 | 77 | 100 | 25 |  |  |  |  |
| CCC(=O)c1ccc(Cl)cc1 | 91 | 29 | 36 | 28 | 51 | 28 |  |  |  |  |
| O[C@H](c1ccc(Cl)cc1)C1CC1 | 97 |  |  | 63 | 80 |  | 27 | 23 | 20 |  |
| O[C@H](c1ccccc1)c1ccc(Cl)cc1 | 100 | 94 | 100 | 99 | 100 | 73 |  |  |  |  |
| CCC(O)c1cccc(Cl)c1 (racemic) | 83 | 60 | 62 | 67 | 77 | 31 |  |  |  |  |
| CCC(=O)c1cccc(Cl)c1 | 91 | 28 | 42 | 26 | 49 | 22 |  |  |  |  |
| O=C(c1ccc(Cl)cc1)C1CC1 [(4-CHLOROPHENYL)(CYCLOPROPYL)METHANONE] | 100 | 63 | 86 | 88 | 99 | 21 |  |  |  |  |
| OC(c1ccc(Cl)cc1)C1CC1 (racemic) | 100 | 53 | 80 | 74 | 100 | 31 |  |  |  |  |
| O[C@@H](c1ccccc1)[C@@H](O)c1ccc(Cl)cc1 | 68 | 52 | 62 | 33 | 63 | 27 |  |  |  |  |
| CCC(O)c1ccc(Cl)cc1 (racemic) | 95 | 41 | 51 | 61 | 77 | 28 |  |  |  |  |
| CC[C@H](O)c1cccc(Cl)c1 | 82 | 37 | 49 | 64 | 71 | 32 |  |  |  |  |
